Assay results taken from patent US20210308077A1, “COMBINATIONS INCLUDING BETA-ADRENORECEPTOR AGONISTS FOR TREATMENT OF PARKINSON`S DISEASE AND MOVEMENT DISORDERS” (The Brigham and Women`s Hospital, Inc., priority 2017, published 2021).

Experiments:
[1] = tested on: α-synuclein protein and mRNA in substantia nigra; assay: Snca expression in substantia nigra, dose-finding mouse trial; type: in vivo; details: 10 mg/kg intraperitoneal, 24 hours, P<0.05
Protocol: The clenbuterol pharmacokinetic (PK) study was done in wild-type C57BL/6J male mice by ChemPartner Co., LTD in Shanghai. The study was done with 4 groups of four mice; one control group and three treatment groups with clenbuterol administered via intraperitoneal injection at dosages of 1, 5 and 10 mg/kg once every 24 hours. Following completion of the administration schedule, blood samples were collected at various time points (e.g. 0.25, 2, 8, and 24 hours), from the four mice per group per time point (final time point of 24 hours post injection). Mice were sacrificed following each blood collection and brains were removed and snap frozen. […] Plasma and brain samples were analyzed by LC-MS/MS for compound concentration at each of three concentrations and at each time point. Standard pharmacokinetic parameters (e.g. AUClast, AUCINF, terminal elimination half-life (t1/2), clearance, volume of distribution, time at maximum observed plasma concentration, etc.) were determined in both plasma and brain tissueby WinNonlin V 6.2 statistics software (Pharsight Corporation, California, USA) using a non-compartmental model. […]
Protein lysis buffer containing 320 mM sucrose, 5 mM NaF, 1 mM Na3VO4, 10 mM Tris (pH 7.4), 1 mM EGTA, and 1 mM EDTA was used for mice brain tissue lysis. […] Total protein concentrations were determined by BCA assay (Thermo Scientific) according to the manufacturer's instructions. […]

H3K27Ac = assay: immunoblot with antibody against H3K27Ac in SK-N-MC cells; type: cell-based, human; details: vs vehicle-treated cells
Protocol: For western blot analysis, protein samples (20 μg) were run on a 4-20% gradient SDS-polyacrylamide gel (Biorad) and transferred onto a polyvinylidene fluoride (PVDF) membrane filter (0.2 μm; Biorad) using an electroblot apparatus (Bio-Rad, Hercules, Calif.) at 100V for 1 h in transfer buffer (25 mM Tris-HCl, 192 mM glycine, 0.1% SDS, 20% (v/v) methanol). The membrane was incubated in blocking solution (50 mM Tris-HCl, 200 mM NaCl, 1 mM MgCl2, pH 7.4) containing 5% non-fat dry milk powder for 1 hour at room temperature. The membrane was processed through sequential incubations with primary antibody overnight at 4° C. followed by incubation with horseradish peroxidase-conjugated species specific secondary antibody at 1:250 dilutions (Thermo Scientific Pierce). Immunoreactive proteins on the membrane were visualized using the SuperSignal™ West Pico Chemiluminescent kit (Thermo Scientific Pierce). Scanned western blots were analyzed using ImageJ software, version 1.47. Pictures were inverted and usually the background signal from an empty lane was subtracted to obtain specific signals for each lane.

[2] = tested on: NPCs carrying the SNCA triplication; assay: MitoSox assay of mitochondria-associated superoxide in SNCA-triplication NPCs exposed to rotenone; type: cell-based, human; details: 20 μM rotenone, 20 μM clenbuterol
Protocol: (§1) Patient-derived NPCs carrying the familial SNCA triplication were generated as described previously (28). NPCs were seeded at […] in 96-well plates (Greiner Cellcoat μClear) for HTS plate reader analysis (Polarstar Omega, BMG). For experiments with toxicants and inhibitors, NPCs were cultured under the following conditions for 18 hours unless specified differently in the experiment procedures: Standard NPC growth medium, growth medium plus 20 μM rotenone (Sigma).
(§2) For the Plate Reader HTS, each experiment was conducted with 6 replicates per cell line and treatment regimen. NPCs were treated with 20 μM clenbuterol for four days. Signals from individual wells were acquired with integration of fluorescence signals over 1 second duration by bottom read in orbital mode (8-spot measurements with 2 mm radius). […]
For the MitoSox assay for the detection of mitochondria-associated superoxide levels, adherent NPCs in 96-well plates were incubated with 2 μM MitoSOX™ (Ex./Em. 510/580 nm) and MitoTracker® Green (485/520 nm) (both Life Technologies) in high glucose without phenol red (Life Technologies), containing supplements without antioxidants (Life Technologies) for 15 min at 37° C. in the dark. […] Fluorescence was detected by sequential readings, and MitoSOX™ signals were normalized to mitochondrial content (Mitotracker®) and cell number (Hoechst).

[3] = tested on: NPCs carrying the SNCA triplication; assay: Resazurin viability assay in SNCA-triplication NPCs exposed to rotenone; type: cell-based, human; details: 20 μM rotenone, 20 μM clenbuterol
Protocol: as §1
as §2, with “radius). Data analysis was performed using BMG Mars software. For data analysis of individual experiments, the mean±SD was plotted using GraphPad7. Non-directional Student's t-test was used for direct statistical comparisons.” for “radius).”
For the Resazurin assay for reduction potential by NADPH levels, NPCs were prepared as above and then loaded with 3 μM C12-Resazurin (Ex/Em: 563 nm/587 nm) (Life Technologies) in medium (see above), for 30 min at 37° C. […] Relative C12-Resazurin fluorescence intensities were normalized to Hoechst 33342 fluorescence.

SMILES: CC(C)(C)NCC(O)c1cc(Cl)c(N)c(Cl)c1 (centres unmarked) [clenbuterol]
- nigral α-synuclein mRNA levels [1]: significant reduction
- nigral α-synuclein protein levels [1]: significant reduction
- H3K27Ac levels (Western blotting) (H3K27Ac): decreased
- mitochondria associated superoxide production [2]: ameliorated this increased mitochondria associated superoxide production
- viability [3]: rescued viability
